12 molecules from patent US20160060260A1, “BROMODOMAIN INHIBITORS FOR TREATING DISEASE” (Board of Regents, The University of Texas System, priority 2014, published 2016) can be followed below.

What is called IC50 is the concentration that gives 50% inhibition.

This assay has as its target T1, Recombinant human His-tagged Trim24-PHD-bromodomain (Homo sapiens, UniProt O15164).
T1 construct: Recombinant human His-tagged Trim24-PHD-bromodomain (produced in-house); made in house
T1 sequence (O15164 824-1006 limits assumed): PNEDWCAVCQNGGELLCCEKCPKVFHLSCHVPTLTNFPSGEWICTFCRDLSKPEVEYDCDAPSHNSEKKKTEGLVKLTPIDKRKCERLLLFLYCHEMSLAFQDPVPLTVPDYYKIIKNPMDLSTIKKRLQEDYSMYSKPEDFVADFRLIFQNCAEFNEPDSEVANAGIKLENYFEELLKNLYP
Description: Trim24 AlphaScreen Assay. The class given is binding. The settings on record: 5 nM Trim24 protein, 15 nM biotinylated H3K23ac (1-33aa) peptide. The protocol:
Recombinant human His-tagged Trim24-PHD-bromodomain (produced in-house), biotinylated H3K23ac (1-33aa) peptide (AnaSpec, Inc.), and test compound were added to a 384-well OptiPlate (Perkin Elmer) and incubated at room temperature for one hour. The assay buffer consisted of 50 mM Hepes, pH 7.5, 100 mM NaCl, and 0.12 mM Triton X-100.
Streptavidin donor beads and nickel chelate acceptor beads, both from a Perkin Elmer AlphaScreen Histidine Detection Kit, were then added to the Optiplate to a final concentration of 10 ug/mL each. Following a 2 hour incubation at room temperature, the microplate was read on an Envision Plate Reader (Perkin Elmer). Percent of control (POC) values were calculated from the following formula:
POC=[sample signal-average background signal]/[average maximum signal−average background signal]*100
The average maximum signal was obtained from wells containing all assay components except test compound. The average background signal pertained to wells with all assay components except Trim24 and test compound. IC50 values were calculated using a four-parameter logistic curve fit.
Turning to `Cc1cc(OCC(C)C)cc(Oc2cc3c(cc2NS(=O)(=O)c2cn(C)cn2)n(C)c(=O)n3C)c1` [Example 222, N-(6-(3-isobutoxy-5-methylphenoxy)-1,3-dimethyl-2-oxo-2,3-dihydro-1H-benzo[d]imidazol-5-yl)-1-methyl-1H-imidazole-4-sulfonamide], the IC50 fell in the range of 10 to 100 nM. The figure for `Cn1cc(S(=O)(=O)Nc2cc3c(cc2Oc2cccc(OCc4ccccc4)c2)n(C)c(=O)n3C)cn1` [Example 25, N-(6-(3-(benzyloxy)phenoxy)-1,3-dimethyl-2-oxo-2,3-dihydro-1H-benzo[d]imidazol-5-yl)-1-methyl-1H-pyrazole-4-sulfonamide] is 100 to 1000 nM; for `Cn1cnc(S(=O)(=O)Nc2cc3c(cc2Oc2cccc(OCC4(C)CO4)c2)n(C)c(=O)n3C)c1` (stereo not drawn) [Example 236, N-(1,3-dimethyl-6-(3-((2-methyloxiran-2-yl)methoxy)phenoxy)-2-oxo-2,3-dihydro-1H-benzo[d]imidazol-5-yl)-1-methyl-1H-imidazole-4-sulfonamide] it is 100 to 1000 nM. `Cn1c(=O)n(C)c2cc(Oc3cccc(OCc4ccccc4)c3)c(NS(=O)(=O)c3ccc(F)cc3)cc21` [Example 15]: the IC50 was above 1000 nM.

Consider `CCCOc1cc(OCCCOC)cc(Oc2cc3c(cc2NS(=O)(=O)c2cccc(F)c2)n(C)c(=O)n3C)c1` [Example 156, 3-fluoro-N-(6-(3-(3-methoxypropoxy)-5-propoxyphenoxy)-1,3-dimethyl-2-oxo-2,3-dihydro-1H-benzo[d]imidazol-5-yl)benzenesulfonamide], for which the IC50 lay within 100 to 1000 nM. The result for `COc1cccc(Oc2cc3c(cc2NS(=O)(=O)c2cn(C)cn2)n(C)c(=O)n3C)c1` [Example 63, N-(6-(3-methoxyphenoxy)-1,3-dimethyl-2-oxo-2,3-dihydro-1H-benzo[d]imidazol-5-yl)-1-methyl-1H-imidazole-4-sulfonamide] reads 100 to 1000 nM; that for `CCCOc1cccc(Oc2cc3c(cc2NS(=O)(=O)c2cnn(C)c2C)n(C)c(=O)n3C)c1` [Example 91, N-(1,3-dimethyl-2-oxo-6-(3-propoxyphenoxy)-2,3-dihydro-1H-benzo[d]imidazol-5-yl)-1,5-dimethyl-1H-pyrazole-4-sulfonamide], 10 to 100 nM; that for `CCCOc1cc(OCCCCN(C)C)cc(Oc2cc3c(cc2NS(=O)(=O)c2cnn(C)c2C)n(C)c(=O)n3C)c1` [Example 217, N-(6-(3-(4-(dimethylamino)butoxy)-5-propoxyphenoxy)-1,3-dimethyl-2-oxo-2,3-dihydro-1H-benzo[d]imidazol-5-yl)-1,5-dimethyl-1H-pyrazole-4-sulfonamide], 10 to 100 nM.

`CCn1cc(S(=O)(=O)Nc2cc3c(cc2Oc2cccc(OCc4ccccc4)c2)n(C)c(=O)n3C)cn1` [Example 77, N-(6-(3-(benzyloxy)phenoxy)-1,3-dimethyl-2-oxo-2,3-dihydro-1H-benzo[d]imidazol-5-yl)-1-ethyl-1H-pyrazole-4-sulfonamide]: the IC50 lay within 100 to 1000 nM. The figure for `CCCOc1cc(OCCCOC)cc(Oc2cc3c(cc2NS(=O)(=O)c2cccc(C(C)C)c2)n(C)c(=O)n3C)c1` [Example 164, 3-isopropyl-N-(6-(3-(3-methoxypropoxy)-5-propoxyphenoxy)-1,3-dimethyl-2-oxo-2,3-dihydro-1H-benzo[d]imidazol-5-yl)benzenesulfonamide] is 100 to 1000 nM; for `Cn1c(=O)n(C)c2cc(Oc3cccc(OCc4ccccc4)c3)c(NS(C)(=O)=O)cc21` [Example 11] it is above 1000 nM. In the case of `COc1ccc(S(=O)(=O)Nc2cc3c(cc2Oc2cc(OCCCCCCN)cc(OCC(F)(F)F)c2)n(C)c(=O)n3C)cn1` [Example 203, N-(6-(3-((6-aminohexyl)oxy)-5-(2,2,2-trifluoroethoxy)phenoxy)-1,3-dimethyl-2-oxo-2,3-dihydro-1H-benzo[d]imidazol-5-yl)-6-methoxypyridine-3-sulfonamide], the IC50 is 10 to 100 nM.
